The conditions of test [1]: central administration, freely-feeding rats, 4 hour time period; cited from earlier work.
A short description of test [2]: Rat sleep/EEG studies after central administration. The format is in vivo. Conditions: central administration at the onset of the normal sleep period; at the expense of paradoxical sleep and slow wave sleep 2. An excerpt:
Therefore antagonists of its receptor may be useful in the treatment of sleep disorders including insomnia.

“orexin-A: ligand for the orexin-1 receptor, an agonist of the orexin receptors; 33-residue peptide, SEQ ID NO:1 (EPLPDCCRQKTCSCRLYELLHGAGNHAAGILTLNH; Homo sapien)”: in test [1], the “increase in food intake over control rats receiving vehicle” value is listed as “approximately four-fold”. In addition, the “arousal in rat sleep/EEG” value in test [2] is “dose-related increase in arousal”.

The values are drawn from patent US7893090B2, “N-aroyl cyclic amine derivatives as orexin receptor antagonists” (SmithKline Beecham Limited, priority 2001, dated 2011).
